Measured values from article PMC4290723 (British Journal of Pharmacology, 2014).
Like-named read-outs stand apart in the source and are kept apart here.

Target: T1, RoDH4 (also named RDH16) (Homo sapiens, UniProt O75452)
T1 sequence (O75452 1-317): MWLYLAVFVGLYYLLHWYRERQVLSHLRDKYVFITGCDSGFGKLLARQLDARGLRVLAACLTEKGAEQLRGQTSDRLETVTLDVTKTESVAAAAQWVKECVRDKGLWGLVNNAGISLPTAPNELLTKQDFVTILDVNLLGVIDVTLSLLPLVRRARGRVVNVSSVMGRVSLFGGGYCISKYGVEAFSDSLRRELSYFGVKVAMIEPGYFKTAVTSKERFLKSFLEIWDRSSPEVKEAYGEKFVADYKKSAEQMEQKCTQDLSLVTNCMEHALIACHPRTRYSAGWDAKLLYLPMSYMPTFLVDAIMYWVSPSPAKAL
Assay: single-concentration ([…]) inhibition of allopregnanolone oxidation by membranes of RoDH4-transfected HEK293 cells
Format: cell-based

remaining activity at 240 µM (HEK293; read-out: % control at 240 μM) [%]	SMILES	remaining activity at 240 µM (HEK293, read-out: % control at 240 μM) [%]
	CN(C)CCCN1c2ccccc2CCc2ccccc21 [imipramine]	25.45 ± 0.04
37.8 ± 0.95	NCCC(Oc1ccc(C(F)(F)F)cc1)c1ccccc1 (centres unmarked) [norfluoxetine]	
